Measurements from article PMC3516806 (Scientific Reports, 2012).

Target: BoGT6a (Bacteroides ovatus, UniProt A0ABU3IMV7)
Assay: ITC, […]°C, HEPES pH […], no metal
Assay type: binding

**Q.** With `CC(=O)N[C@H]1[C@@H](OP(=O)(O)OP(=O)(O)OC[C@H]2O[C@@H](n3ccc(=O)[nH]c3=O)[C@H](O)[C@@H]2O)O[C@H](CO)[C@H](O)[C@@H]1O` [UDP-GalNAc] as the compound, how does the Kd read?
**A.** The Kd was 59 µM.
